According to US20250257061A1, “COMPOSITIONS AND METHODS FOR TREATING CANCER AND REDUCING WNT MEDIATED EFFECTS” (StemSynergy Therapeutics, Inc., priority 2024, published 2025):
Like-named read-outs stand apart in the source and are kept apart here.

Experiments:
[1] = tested on: Wnt reporter (TCF/LEF1 promoter); assay: HEK STF293 Wnt reporter (TOPFlash) luciferase assay, Steady Glo normalised to Cell Titer; format: cell-based, human
Outline: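 HEK STF293 cells carrying a TCF/LEF1-driven firefly luciferase were stimulated with Wnt3a-conditioned media (1:1) and compound at final 100 μM to 1 nM. Next day, lysates were read by Steady Glo luminescence. EC50 was derived from Steady Glo divided by Cell Titer to normalize for cell number.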

[2] = tested on: Wnt-dependent HCT116 cell line; assay: Viability assay using Wnt-dependent HCT116 cell line (Cell Titer Glo); format: cell-based
Outline: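 HCT116 cells at 2,500 cells/well were treated on day 2 with DMSO-diluted compounds further diluted 500-fold in medium, giving a final 0.1% DMSO. Viability was read on day 5 by Cell Titer Glo luminescence.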

[3] = Homo sapiens, STF/293, Examples for Formulae (IV), (V), (VI), and (VII), HEK STF293 cells, Wnt3a-conditioned media, read-out: TOPFlash IC50 category
[4] = Homo sapiens, HCT-116, Examples for Formulae (IV), (V), (VI), and (VII), HCT116 cells, read-out: Viability IC50 category
[5] = Examples for Formulae (IV), (V), (VI), and (VII), HEK STF293 cells, Wnt3a-conditioned media, read-out: TOPFlash IC50 category
[6] = Examples for Formulae (IV), (V), (VI), and (VII), HCT116 cells, read-out: Viability IC50 category

| Structure (SMILES) | IC50 [1, 3] | IC50 [2, 4] | IC50 [1, 5] | IC50 [2, 6] | also measured |
| --- | --- | --- | --- | --- | --- |
| Cc1nc(-c2ccc(-c3nnc[nH]3)cc2)c(C(=O)Nc2nc(-c3ccccn3)cs2)o1 [Example 67] | 200 to 500 nM | 200 to 500 nM |  |  |  |
| C#Cc1ccc(-c2nc(C)oc2C(=O)Nc2nc(-c3ccccn3)cs2)cc1 [Example 68] |  |  | < 200 nM | < 200 nM |  |
| COCc1nc(-c2ccc(F)cc2)c(C(=O)Nc2nc(-c3ccccn3)cs2)o1 [Example 69] | 200 to 500 nM | 200 to 500 nM |  |  |  |
| O=C(Nc1nc(-c2ccccn2)cs1)c1oc(CO)nc1-c1ccc(F)cc1 [Example 70, 4-(4-fluorophenyl)-2-(hydroxymethyl)-N-(4-(pyridin-2-yl)thiazol-2-yl)oxazole-5-carboxamide] |  |  |  |  | IC50 ([1]; Homo sapiens, STF/293, read-out: TOPFlash IC50 category): 500 to 1000 nM; IC50 ([2]; Homo sapiens, HCT-116, read-out: Viability IC50 category): 200 to 500 nM |
| CN1CCN(Cc2nc(-c3ccc(F)cc3)c(C(=O)Nc3nc(-c4ccccn4)cs3)o2)CC1 [Example 71] | 200 to 500 nM | 200 to 500 nM |  |  |  |
| O=C(Nc1nc(-c2ccccn2)cs1)c1oc(CN2CCOCC2)nc1-c1ccc(F)cc1 [Example 72] | 200 to 500 nM | 200 to 500 nM |  |  |  |
| CN(c1nc(-c2ccc(Cl)cc2)c(C(=O)Nc2nc(-c3ccccn3)cs2)o1)S(=O)(=O)c1ccc(C(F)(F)F)cc1 [Example 73] |  |  | < 200 nM | < 200 nM |  |
| CN(c1nc(-c2ccc(S(C)(=O)=O)cc2)c(C(=O)Nc2nc(-c3ccccn3)cs2)o1)S(=O)(=O)c1ccc(F)cc1 [Example 74] |  |  | < 200 nM | < 200 nM |  |
| CN(c1nc(-c2ccc(S(C)(=O)=O)cc2)c(C(=O)Nc2nc(-c3ccccn3)cs2)o1)S(=O)(=O)c1ccc(C(F)(F)F)cc1 [Example 75] |  |  | 200 to 500 nM | < 200 nM |  |
| CN(C(=O)c1ccc(F)cc1)c1nc(-c2ccc(F)cc2)c(C(=O)Nc2nc(-c3ccccn3)cs2)o1 [Example 76] | < 200 nM | < 200 nM |  |  |  |
| Cc1nc(N(C)C(=O)c2ccccc2Cl)oc1C(=O)Nc1nc(-c2ccccn2)cs1 [Example 77] |  |  | 200 to 500 nM | 500 to 1000 nM |  |
| CN(C(=O)c1ccccc1Cl)c1nc(C(F)(F)F)c(C(=O)Nc2nc(-c3ccccn3)cs2)o1 [Example 78] | 500 to 1000 nM | 1000 to 10000 nM |  |  |  |
